We go through 1 compound from US9617602B2, “Methods and compositions for determining resistance to androgen receptor therapy” (Aragon Pharmaceuticals, Inc., priority 2012, dated 2017).

Common to all, as to format: cell-based, human
Assay [1] deals with Class 2 MDV3100- and ARN-509-resistant cell lines. As to the kind of experiment: Proliferation assay (CellTiter-Glo), agonist and antagonist mode. The conditions noted are these: antagonist mode. Background: ATP-based viability assays read luminescence as a measure of living cells.
In assay [2] the test system is Class 2 resistant cell lines. Description: Endogenous gene transcriptional assay (real-time PCR of androgen responsive genes). For orientation: Real-time PCR tracks product formation cycle by cycle.
Experimental: (§1) Total RNA was isolated using the Aurum™ total RNA isolation kit (BIO-RAD, Hercules, Calif.). RNA (1 μg) was reverse transcribed using the iScript cDNA synthesis kit (BIO-RAD, Hercules, Calif.) to produce cDNA. Real-time PCR was performed using the Applied Biosystems 7900HT instrument and SYBR Green PCR Master Mix (Applied Biosystems, Foster City, Calif.). PCR reactions were performed in 6 μL according to the manufacturer's protocol and a thermocycle protocol of 95° C. for 10 minutes followed by 40 cycles of 95° C. for 15 seconds and 58° C. for 1 minute. Androgen responsive gene (PSA, SLUG, TMPRSS2, STEAP4, FKBP5, ORM1, NOV, FASN, NKX3.1, AMIGO2, BDNF, CAMK2N1, HPGD, NCAPD3, PLD1) expression was normalized to GAPDH expression and expressed relative to vehicle treatment of the parental cell line.
For the next assay, the system named is LNCaP cells. The assay is described as above. As to conditions: 1 nM R1881 or 30 μM compound, vehicle=1.00.
Assay [3] deals with Class 1 resistant cell lines. Described as above.
Experimental: as §1
In assay [4] the test system is Class 2 resistant cell lines. Description: Transcriptional reporter assay (probasin-luciferase). For orientation: In a reporter assay the amount or activity of a reporter protein is the signal.
Experimental: With the exception of the LNCaP/AR(cs)-Luc cells that contain an integrated androgen responsive reporter, cells were transiently transfected using Lipofectin® (Life Technologies) according to the manufacturer's protocol. […] Following transfection, the cells were incubated for 4 hours.
Following 48 hour incubation the medium was removed and the cells were lysed in 40 μL of lysis buffer (25 mM Tris Phosphate, 2 mM CDTA, 10% Glycerol, 0.5% Triton X-100, 2 mM DTT).

Experimental for LNCaP cells: as §1
Gene expression was normalized to GAPDH as described above.

`CNC(=O)c1ccc(N2C(=S)N(c3ccc(C#N)c(C(F)(F)F)c3)C(=O)C2(C)C)cc1F` [Enzalutamide, enzalutamide]: the “Antagonism of androgen dependent growth of Class 2 resistant lines” value in assay [1] was “only partially antagonized”. For the same compound, the “Transcriptional activity on endogenous androgen-responsive genes, Class 2 resistant cell lines” value in assay [2] was “robust transcriptional agonist activity”. In the assay with LNCaP cells, this compound returned an AMIGO2 gene expression of 1.20, a BDNF gene expression of 0.85, a CAM2KN1 gene expression of 1.39 and an FASN gene expression of 1.24. Further, in the assay with LNCaP cells, the HPGD gene expression turned out to be 1.78, the NCAPD3 gene expression amounted to 1.20, the NKX3.1 gene expression is 1.66 and the NOV gene expression amounted to 2.57. In the assay with LNCaP cells, this compound gave a PLD1 gene expression of 0.70, a PSA gene expression of 1.69, an SLUG gene expression of 2.35 and a TMPRSS2 gene expression of 1.68. For the same compound, the “Transcriptional activity on endogenous androgen-responsive genes, Class 1 resistant cells” value in assay [3] was “weak transcriptional agonist”. The “Agonist activity in probasin-luciferase reporter assay, Class 2 resistant cells” value in assay [4] was “weak partial agonist”. Besides, the “Agonist Transcriptional Reporter Assay (% Max Activity)” value in assay [4] (Class 2, [Antagonists] = 50 μM) is recorded as “++ (‘++’ = >5)”. Further, the “Antagonist Transcriptional Reporter Assay (% Max Activity)” value in assay [4] (Class 2, [Antagonists] = 50 μM in presence of R1881) is recorded as “++ (‘++’ = >5)”.
